Data: patent US10265374B2, “Occidiofungin formations and uses thereof” (MISSISSIPPI STATE UNIVERSITY, priority 2014, dated 2019)

Legend:
[1] = tested on: OVCAR8; test: In vitro toxicity screening (CellTiter-Blue cell viability, 48 hours); format: cell-based, human
Excerpt: (§1) Cancer cell lines, OVCAR8 (Center for Cancer Research (OVAR.8; Sample ID 25)), SW1088 (ATCC-HTB-12), and Toledo (ATCC CRL-2631), and normal human neonatal dermal fibroblasts cell line (ATCC-PCS-201-010) were passaged and prepped as previously described (See References 15-17). OVCAR8, SW1088, and Toledo2631 are ovarian, brain, and B-cell lymphoma cancer cell lines, respectively. This panel of cell lines was chosen based, in part, on their being from very different cancer types in order to discern whether occidiofungin would have a broad spectrum activity towards cancer cell lines of vastly different parental organ/cell types. OVCAR8 cells are widely used in the field of cancer therapeutic research as a panel representative of ovarian cancer in screening experiments for identifying both ovarian-specific and non-specific (i.e., anti-neoplastic activity on multiple cancer cell types) therapeutic agents (See References 28-30). Similarly, SW1088 cells are widely used in the field of cancer therapeutic research as a panel representative of glioma (the most common brain cancer) in screening experiments for identifying both glioma-specific and non-specific therapeutic agents (See References 31-32). Toledo 2631 cells are derived from lymphoma cells, and are used in the field of cancer therapeutic research for identifying lymphoma-specific and non-specific therapeutic agents (See, e.g., Reference 33). […] Cell counts per plate were calculated to be approximately 50,000 cells/mL. A 10× stock solution of occidiofungin was prepared at 65 μM concentration in 10% dimethyl sulfoxide (DMSO). Two-fold serial dilutions on a 96 well plate were set up in triplicate with starting concentration of 6.5 μM and a final concentration of 3 nM. Bortezomib was used as a comparator for toxicity against human fibroblast and was serially diluted two-fold starting at a concentration of 5 μM and ending at 2.5 nM. Bortezomib is used clinically against myeloma and lymphoma cancers in patients refractory against other chemotherapeutics (See References 18, 19). Furthermore, bortezomib has shown efficacy against a variety of solid tumors and cancer cell lines, making this an appropriate comparison molecule in the panel of cell lines chosen (See References 34-35). The plates were then incubated at 37° C. in 5% CO2 for 48 hours. After 48 hours, cell viability was monitored using CellTiter-Blue (Promega) cell viability assay by measuring the fluorescence emission of a redox activated dye (579EX/584EM) using a POLARstar Omega microplate reader (BMG Labtech).

[2] = tested on: SW1088; test: as above; format: cell-based, human; details: SW1088 astrocytoma brain cancer cell line, mean of three independent experiments, read-out: TC50 (the source's name)
Excerpt: as §1

[3] = tested on: Toledo (ATCC CRL-2631); test: as above; format: cell-based, human; details: Toledo CRL-2631 B-cell lymphoma cell line, mean of three independent experiments, read-out: TC50 (the source's name)
Excerpt: as §1

[4] = Pharmacokinetics in mouse (i.v., LC-MS/MS of plasma); format: in vivo; details: 2.5 mg/kg i.v., mice
Procedure: Six week old female BALB-C mice were used for this experiment. Occidiofungin, at a concentration of 2.5 mg/kg of body weight, was administered through the tail vein of each mouse. Nine mice were randomly selected for this experiment and were grouped into three groups of three mice each. Blood was drawn at 1, 3, 5, 7, 9, 12, 24 and 48 hours post injection (hpi) from the mice. 15 μl of blood was drawn from the lateral saphenous vein of each mouse for the first three time points. Blood from three mice were pooled together and added to 5 μl of 6.4% citric acid to prevent coagulation. From the fourth time point, blood was drawn from the tail vein of the mice. Blood samples were spun down at 13000 rpm for 10 minutes to separate the plasma. The plasma and the blood pellet obtained were stored separately at −20° C. for analysis. The plasma samples were thawed and the occidiofungin was extracted using a final concentration of 50% methanol. The protein precipitate was spun down at 13000 rpm for 10 minutes and the supernatant was used for analysis. The LC-MS/MS components were carried out at ThermoScientific laboratories. Liquid chromatography was done using Acclaim 120 C18 columns (Length: 150 mm; I.D: 2.1 mm; 5 μm) to purify the occidiofungin in the sample. The occidiofungin was then subjected to MS/MS using the ThermoScientific TSQ Vantage. Fragmentation of the occidiofungin (parent mass 1216 m/z) was carried out and the fragment of 1084 m/z, which corresponds to the occidiofungin molecule without the xylose sugar, was used for quantification of occidiofungin. All data were acquired and analyzed using TraceFinder (v 3.1).

[5] = tested on: Candida albicans; details: Candida albicans (References 9, 10); cited from earlier work
[6] = tested on: Saccharomyces cerevisiae gene deletion mutants; details: Δycal vs wild-type, Reference 2; cited from earlier work

Q: Which CC50 ([1]; OVCAR8 ovarian cancer cell line, 48 hours, mean of three independent experiments, read-out: TC50 (the source's name)) does the source give for occidiofungin here?
A: 0.061 µM

Q: And the “activity against the cancer cell lines relative to what has been reported against Candida species” value ([1]; cancer cell lines OVCAR8, SW1088, Toledo together)?
A: ten to twenty-fold higher

Q: What about the CC50 [2] of the same substance?
A: 0.068 µM

Q: And the CC50 [3]?
A: 0.07 µM

Q: What about the “clearance from the system by 24 hours” value [4] of the same substance?
A: rapidly cleared

Q: What about the “concentration at 9-12 hpi compared to the concentration at 7 hpi” value [4] of the same substance?
A: 2.5 times

Q: What about the “concentration of occidiofungin relative to the TC50 value for the cancer strains” value [4] of the same substance?
A: three to six fold higher

Q: What about the “time at which occidiofungin concentration peaked” value [4] of the same substance?
A: around 9 hpi

Q: What about the “concentration by 48 hours” value ([4]; limit of quantification 50 ng/ml) of the same substance?
A: below the level of quantification

Q: What about the “peak concentration in blood/plasma” value ([4]; tail vein) of the same substance?
A: 480 ng/mL

Q: What about the “fungicidal activity compared with caspofungin” value [5] of the same substance?
A: more rapid

Q: And the “increase in resistance on deletion of the ycal gene” value [6]?
A: 2 fold
